From paper PMC6013238, “Development of novel NEMO-binding domain mimetics for inhibiting IKK/NF-κB activation” (PLoS Biology, 2018)
“And” between values parts separate entries of the source, which are not always exact repeats. Equal entries are not always repeated. Blank lines part the entries; values can stand above or below the compound they belong to.

Tests used:
[1] = Stability time course in FBS media with or without acetonitrile; type: in vitro ADME
Description: (§1) To confirm that the NBD mimetics reduce IKK kinase activity, phosphorylation of IκBα by IKK in response to 10 ng/ml of TNF-α was measured by western blot at 0, 5, and 10 min after stimulation. […] To determine whether the mimetics also reduce NF-κB DNA binding activity, electrophoretic mobility shift assay (EMSA) was conducted both in vitro and in vivo. […] The addition of acetonitrile increased the stability of both ZINC compounds, especially ZINC 5 (Fig 3D).
(§2) Fig 3 Two identified small molecules reduce NF-κB DNA binding activity in vivo and in vitro. (A) Levels of p-IκBα with or without treatment in response to TNF-α were determined by western blot analysis. HEK293 cells were pretreated with DMSO, ZINC12909780 (100 μM), and ZINC5 (100 μM) for 30 min followed by the stimulation of 10 ng/ml of TNF-α for 0, 5, and 10 min. Cell lysates were prepared for immunoblot against p-IκBα. GAPDH was used as a loading control. (B) EMSA analysis detecting NF-κB DNA binding activity was performed in C2C12 myoblasts. Cells were pretreated with 200 μM of DMSO, ZINC12909780, and ZINC5 in serum-free media for 1 h. TNF-α was then added to a final concentration of 10 ng/ml and incubated for 15 min. Nuclear extract was obtained for EMSA analysis. (C) EMSA analysis assessing NF-κB DNA binding activity in vivo was performed with quadriceps from mdx mice. Single-dose ZINC12909780 and ZINC5 at 10 mg/kg was given by i.p. Quadriceps was harvested at 1 h and 2 h post injection for EMSA analysis. (D) The time-course pharmacokinetics of ZINC5 and ZINC12909780 in FBS media or FBS media containing acetonitrile. Underlying data can be found in S1 Data. EMSA, electrophoretic mobility shift assay; HEK293, human embryonic kidney 293 cells; i.p., intraperitoneal; NF-κB, nuclear factor κB; t1/2, half-life; TNF-α; tumor necrosis factor α.

[2] = test system: NF-κB DNA binding activity; experiment: EMSA of NF-κB DNA binding activity in C2C12 myoblasts; type: cell-based, mouse; conditions: 200 μM, 1 h, serum-free media; TNF-α 10 ng/ml 15 min
Description: as §1
as §2, with “Single-dose ZINC12909780 and ZINC5 at 10 mg/kg was given by i.p. Quadriceps was harvested at 1 h and 2 h post injection for EMSA analysis. (D) The time-course pharmacokinetics of ZINC5 and ZINC12909780 in FBS media or FBS media containing acetonitrile. Underlying data can be found in S1 Data. EMSA, electrophoretic mobility shift assay; HEK293, human embryonic kidney 293 cells; i.p., intraperitoneal; NF-κB, nuclear factor κB; t1/2, half-life; TNF-α; tumor necrosis factor α.” left out

[3] = test system: IL-6 production; experiment: Mouse IL-6 ELISA of supernatant of LPS-stimulated Raw 264.7 cells; type: cell-based; conditions: LPS 1 μg/ml 24 h; for mIL-6 in supernatant (ELISA): Fig 4D; for Effect on LPS-induced IL-6 production (ELISA): 25 and 50 μM
Description: Fig 4 Modified lead NBD mimetics inhibit TNF-α- and LPS-induced NF-κB activation by disrupting the association between NEMO and IKKβ. (A) Structures of top NBD mimetics. (B) Measurement of NF-κB activation in response to TNF-α by using Dual-luciferase reporter assays. HEK293 cells cotransfected with NF-κB luciferase reporter and SV40-Renilla plasmids were pretreated with DMSO or listed small molecules at 0, 25, 50, 100, and 150 μM for 30 min, followed by the induction of TNF-α for 3 h. Data shown are representative of 2–3 independent experiments. […] Raw 264.7 cells were pretreated with indicated drugs for 30 min and then stimulated with 1 μg/ml of LPS for 2 h. Cells were then harvested for RNA extraction and qRT-PCR analysis. Drug concentrations used are as follows: IKKi VII (2 μM), 8K-NBD peptide (200 μM), SR12343 (50 μM), SR12460 (50 μM), SR12454 (50 μM), and SR11481 (50 μM). Data are representative of 2 independent experiments. […] Raw 264.7 cells pretreated with DMSO or drugs at indicated concentrations were exposed to 1 μg/ml of LPS for 24 h, and supernatant was collected for ELISA analysis of mouse IL-6. *P < 0.05; **P < 0.01. Underlying data can be found in S1 Data. HEK293, human embryonic kidney 293 cells; IKK, IκB kinase; IL-6, interleukin 6; LPS, lipopolysaccharide; NBD, NEMO-binding domain; n.d., nondetectable; NEMO, NF-κB essential modulator; NF-κB, nuclear factor κB; qRT-PCR, […] real-time polymerase chain reaction; TNF-α; tumor necrosis factor α. TEXT PRINTED IN THE PICTURE: (D) ikki VII: mIL-6 (ng/ml): n.d. | (D) SR12460: mIL-6 (ng/ml): n.d. (50μM) | (D) SR12454: mIL-6 (ng/ml): n.d. (50μM) DOUBTS OF THE COPYIST ABOUT THIS PICTURE: Panel D: the only printed results are the three "n.d." labels. They stand in place of bars and are assigned to ikki VII, SR12460 50μM and SR12454 50μM by their position on the axis. All other results are shown only as bars, with no printed numbers.
To confirm the qRT-PCR results, the levels of IL-6 production in Raw 264.7 cells activated by LPS were analyzed by ELISA.
Raw 264.7 cells were grown in 96-well plates and pretreated with vehicle, IKKi VII (2 μM), and small molecules (at indicated concentration) for 1 h, followed by the stimulation with 1 μg/ml of LPS. Supernatant was collected 24 h later for ELISA analysis. IL-6 concentration was measured using a mouse IL-6 ELISA kit (BD) according to the manufacturer’s instructions.

Stability in cell culture media containing FBS [1]: relatively more stable | remaining at 0.25 h ([1]; bovine, FBS media containing acetonitrile, fbs-media+acetonitrile, 15 min): 94.8% | remaining at 0.5 h ([1]; bovine, FBS media containing acetonitrile, fbs-media+acetonitrile, 30 min): 103% | remaining at 1 h ([1]; bovine, FBS media containing acetonitrile, fbs-media+acetonitrile, 60 min): 106% | remaining at 4 h ([1]; bovine, FBS media containing acetonitrile, fbs-media+acetonitrile, 240 min): 104% | half-life ([1]; bovine, cell culture media containing FBS, FBS-media): 15 h | remaining at 0.25 h ([1]; bovine, cell culture media containing FBS, fbs-media, 15 min): 101% | remaining at 0.5 h ([1]; bovine, cell culture media containing FBS, fbs-media, 30 min): 105% | remaining at 1 h ([1]; bovine, cell culture media containing FBS, fbs-media, 60 min): 92% | remaining at 4 h ([1]; bovine, cell culture media containing FBS, fbs-media, 240 min): 85%
Structure (SMILES): Nc1ncccc1C(=O)OCC(=O)Nc1ccc(Cl)cc1F [ZINC12909780]
TNF-α-induced NF-κB DNA binding activity (EMSA) [2]: inhibit TNF-α-induced NF-κB DNA binding activity

Structure (SMILES): O=C(CNc1ccc(Cl)cn1)NCCc1cccc(Br)c1 [SR12343]
mIL-6 in supernatant (ELISA) ([3]; 25 μM): 2.6915 ng/mL and 2.4446 ng/mL and 1.843 ng/mL | Effect on LPS-induced IL-6 production (ELISA) [3]: inhibited IL-6 production, but was not as effective as SR12460 and SR12454

Structure (SMILES): O=C(COC(=O)Cc1ccccc1F)Nc1ccc(Cl)cn1 [ZINC5]
Stability in cell culture media containing FBS [1]: extremely unstable | t1/2 ([1]; FBS-media): 1.5 h | t1/2 ([1]; FBS-media+acetonitrile): 10.8 h | % remaining ([1]; fbs-media+acetonitrile, 15 min): 77.2% | % remaining ([1]; fbs-media+acetonitrile, 30 min): 85.8% | % remaining ([1]; fbs-media+acetonitrile, 60 min): 86.3% | % remaining ([1]; fbs-media+acetonitrile, 240 min): 69.4% | % remaining ([1]; fbs-media, 15 min): 90.8% | % remaining ([1]; fbs-media, 30 min): 79.8% | % remaining ([1]; fbs-media, 60 min): 61.8% | % remaining ([1]; fbs-media, 240 min): 16.4% | TNF-α-induced NF-κB DNA binding activity (EMSA) [2]: inhibit TNF-α-induced NF-κB DNA binding activity

Structure (SMILES): O=C(CNCCc1cc(F)cc(F)c1)Nc1ccc(Cl)cn1 [SR12460]
mIL-6 in supernatant (ELISA) ([3]; 25 μM): 1.4838 ng/mL and 1.2369 ng/mL and 1.4569 ng/mL | mIL-6 in supernatant (ELISA) ([3]; 50 μM): 0 ng/mL | Effect on LPS-induced IL-6 production (ELISA) [3]: inhibit IL-6 secretion significantly in a dose-dependent manner
